Assay results published in patent publication US10669256B2, “Crystalline forms of lasmiditan, preparation methods, pharmaceutical compositions and uses thereof” (priority 2016, dated 2020).
Entries after “also recorded” stand apart in the source; their conditions may differ. Structures can show the parent of a compound that is named as a salt.

Assays:
[1] = Solid state stability experiment (XRD after storage at room temperature under dry condition); format: physicochemical; settings: for 1 day test results (solid form by XRD): stored 1 day; for 10 days test results (solid form by XRD): stored 10 days
Method: X-ray powder diffraction (XRPD): performed on Bruder D8 Advance diffractometer. Samples were tested at room temperature. Testing conditions: […] 3-40°, step size 0.02°, and speed 0.2 s/step.
Solid state stability experiment: Placed 20 mg of each of lasmiditan amorphous form of preparation Example 1, lasmiditan hydrochloride amorphous of Preparation Example 2, lasmiditan Form 1, lasmiditan Form 2, lasmiditan Form 3, lasmiditan hydrochloride Form A, lasmiditan hydrochloride Form B, lasmiditan hydrochloride Form C, and lasmiditan hydrochloride Form E of the present invention at room temperature under dry condition, took the samples out and analyzed by XRD at the corresponding time, their XRD pattern are shown in FIGS. 16-18 and FIGS. 46-50.

[2] = Dynamic vapor sorption / isothermal sorption (hygroscopicity); format: physicochemical; settings: for weight change (isothermal sorption plot): between 0 to 80% RH; for weight change (DVS isothermal sorption plot): between 20 to 80% RH
Method: Dynamic vapor sorption data and isothermal sorption data were collected on TA Instruments Q5000 TGA. Method: A sample of 1 to 10 mg was placed in a platinum pan; the weight change of the sample during the change in relative humidity from 0% to 80% to 0% was measured.

SMILES	1 day test results (solid form by XRD) ([1]; hydrochloride)	weight change (isothermal sorption plot) ([2]; hydrochloride) [%]	1 day test results (solid form by XRD) [1]	10 days test results (solid form by XRD) [1]	weight change (isothermal sorption plot) [2] [%]	weight change (DVS isothermal sorption plot) [2] [%]	10 days test results (solid form by XRD) ([1]; hydrochloride)	other results
CN1CCC(C(=O)c2cccc(NC(=O)c3c(F)cc(F)cc3F)n2)CC1 [Lasmiditan hydrochloride amorphous form, lasmiditan hydrochloride, reference compound]	began to crystallize	8.1						weight change (isothermal sorption plot) ([2]; listed as Preparation Example 2, hydrochloride): 8.1%
CN1CCC(C(=O)c2cccc(NC(=O)c3c(F)cc(F)cc3F)n2)CC1 [Lasmiditan Form 3, 2,4,6-trifluoro-N-[6-(1-methyl-piperidine-4-carbonyl)pyridin-2-yl]-benzamide]			Form 3	Form 3	0.7			10 days test results (solid form by XRD) ([1]; listed as lasmiditan Form 3): still remained their original forms; also recorded: remained unchanged
CN1CCC(C(=O)c2cccc(NC(=O)c3c(F)cc(F)cc3F)n2)CC1 [Lasmiditan Form 1, 2,4,6-trifluoro-N-[6-(1-methyl-piperidine-4-carbonyl)pyridin-2-yl]-benzamide]			Form 1	Form 1	0.1	0.1		10 days test results (solid form by XRD) ([1]; listed as lasmiditan Form 1): remained unchanged; also recorded: still remained their original forms
CN1CCC(C(=O)c2cccc(NC(=O)c3c(F)cc(F)cc3F)n2)CC1 [Lasmiditan hydrochloride Form E, lasmiditan hydrochloride]	Change to Form A							1 day test results (solid form by XRD) ([1]; listed as lasmiditan hydrochloride Form E, hydrochloride): converted to Form A
CN1CCC(C(=O)c2cccc(NC(=O)c3c(F)cc(F)cc3F)n2)CC1 [Lasmiditan Form 2, 2,4,6-trifluoro-N-[6-(1-methyl-piperidine-4-carbonyl)pyridin-2-yl]-benzamide]			Form 2	Form 2	0.1	0.1		10 days test results (solid form by XRD) ([1]; listed as lasmiditan Form 2): still remained their original forms; also recorded: remained unchanged
CN1CCC(C(=O)c2cccc(NC(=O)c3c(F)cc(F)cc3F)n2)CC1 [Lasmiditan hydrochloride Form C, lasmiditan hydrochloride]	Form C	0.9					Form C	10 days test results (solid form by XRD) ([1]; listed as lasmiditan hydrochloride Form C, hydrochloride): remained unchanged; also recorded: still remained their original forms
CN1CCC(C(=O)c2cccc(NC(=O)c3c(F)cc(F)cc3F)n2)CC1 [Lasmiditan hydrochloride Form A, lasmiditan hydrochloride]	Form A	0.1					Form A	10 days test results (solid form by XRD) ([1]; listed as lasmiditan hydrochloride Form A, hydrochloride): remained unchanged; also recorded: still remained their original forms
CN1CCC(C(=O)c2cccc(NC(=O)c3c(F)cc(F)cc3F)n2)CC1 [Lasmiditan hydrochloride Form B, lasmiditan hydrochloride]	Form B	4.2					Form B	10 days test results (solid form by XRD) ([1]; listed as lasmiditan hydrochloride Form B, hydrochloride): remained unchanged; also recorded: still remained their original forms
CN1CCC(C(=O)c2cccc(NC(=O)c3c(F)cc(F)cc3F)n2)CC1 [Lasmiditan amorphous form, 2,4,6-trifluoro-N-[6-(1-methyl-piperidine-4-carbonyl)pyridin-2-yl]-benzamide, reference compound]			began to crystallize		9.5	9.5		weight change (isothermal sorption plot) ([2]; listed as Preparation Example 1): 9.5%
